Results on eight molecules are retold here after patent publication US20260132123A1, “ABAD INHIBITOR COMPOUNDS” (UNIVERSITY COURT OF THE UNIVERSITY OF ST ANDREWS, priority 2021, published 2026).

Molecules are shown by their SMILES. Read-outs that look alike come from different tables or passages of the source.

In data set [1] the target is T1, 17β-HSD10 (Homo sapiens, UniProt Q99714).
T1 construct: Histev (histidine tag with TEV site) (N, cleaved yes); made in house; host or cells: E. coli BL21-CodonPlus
T1 sequence (Q99714 1-261): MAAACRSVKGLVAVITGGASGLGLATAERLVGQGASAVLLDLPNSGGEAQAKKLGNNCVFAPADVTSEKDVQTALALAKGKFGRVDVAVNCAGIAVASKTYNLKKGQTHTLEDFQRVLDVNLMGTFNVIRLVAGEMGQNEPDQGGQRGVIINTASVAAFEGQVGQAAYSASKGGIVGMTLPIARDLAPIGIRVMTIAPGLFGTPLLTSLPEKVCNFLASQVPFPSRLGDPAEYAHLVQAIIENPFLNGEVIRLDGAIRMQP
Kind of data set: 17β-HSD10 (ABAD) enzyme inhibition assay, NADH oxidation read at 340 nm (primary screen and dose response). It is filed as biochemical. The settings on record: for EC50 / Max. Effect (%) / Hill Slope / Max. Fit / Min. Fit: recombinant 17βHSD10 enzyme assay; for Hill Slope / Max. Fit / Min. Fit: curve fit. An outline of the steps: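 Tag-cleaved recombinant human 17β-HSD10 (2.5 nM) preincubated 15 min with compound in Tris pH 7.4, NaCl, DTT, Tween, BSA (catalase in some runs), then 100 μM acetoacetyl-CoA and NADH added. NADH oxidation by A340 fall: 35 min endpoint for screening at 10 μM; continuous 45 min for dose response.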

The nature of data set [2]: Mouse hepatocyte stability. It is filed as in vitro ADME. Set-up: k: unit not given here. Particulars: for Heps Category: hepatocyte metabolism category, mouse; for Cl: clearance; for k: k=absorption rate constant (so in the source). The text has this:
(§1) Table 5: Initial mouse hepatocyte stability and plasma protein binding experiments were undertaken on some of the best exemplars from the representative series with AG18051 a previously published 17β-HSD10 inhibitor (C. R. Kissinger et al., J. Mol. Biol., 342 (2004), p. 943; Lim, Y.-A., Grimm, A., Giese, M. PLoS ONE (2011), 6, e28887.) Ref: shown for comparison. Where k=absorption rate constant Cl=clearance, T1/2=half-life, Heps=hepatocyte metabolism, PPB=plasma protein binding.

Data set [3] in a line: Mouse plasma protein binding. It is filed as in vitro ADME.
Source text: as §1

Data set [4] concerns the target T1, 17β-HSD10. Put plainly: Thermal shift analysis. It is filed as binding. Particulars: 20 μM compound, 1 mM NADH. The protocol:
Solutions containing compound at two concentrations (25 μM and 100 μM) added to assay buffer (50 mM Hepes, 0.5 M NaCl, pH 8.2, SYPRO orange 20 X, ±1 mM NADH) were plated in triplicate (25 μl per well) in MicroAmp 96-well plates (Thermo Fisher: 4346907). The plates were then sealed with optical grade sealing film (Thermo Fisher: 4311971) and loaded into a ViiA 7 RT-PCR machine ((Thermo Fisher: 4453534) (ramp speed 0.015° C./sec, 25-95° C.)). Data was exported to GraphPad PRISM and Tm values were calculated using the Boltzmann sigmoidal curve fit equation.
The ΔTm for one compound from each series is presented in FIG. 9 with a representative derivative plot of ESC1002033 and ESC1002082 in FIG. 9a.

In data set [5] the target is T1, 17β-HSD10. Kind of data set: Mechanism of action against the substrates NADH and AcetoAcetyl CoA. It is filed as biochemical. Particulars: for mode of binding with respect to NADH: AcAc in excess at 800 μM; for mode of binding with respect to AcAc: excess of 100 μM NADH. The protocol: To determine the kinetics for acetoacetyl-CoA and the effect of 17β-HSD10 concentration upon reaction rate, a matrix titration experiment was set up. Previously determined conditions were used with a fixed concentration of 700 μM NADH and a starting concentration of up to 200 μM acetoacetyl-CoA. Doubling dilutions of acetoacetyl-CoA were then coupled with doubling dilutions of 17β-HSD10, which started with a maximum concentration of 40 nM. Data collected from the experiment was analysed using a standard template, from which reaction progress curves were analysed to calculate initial velocities and obtain Km values using the Michaelis-Menten equation (XLFit, ID Business Solutions).
To determine the kinetics for NADH and the effect of 17β-HSD10 concentration upon reaction rate a matrix titration experiment was set up. Previously determined conditions (Aitken et al. 2017, supra) were used, 120 μM acetoacetate and a starting concentration of up to 1000 μM NADH. Doubling dilutions of NADH were then coupled with doubling dilutions of 17β-HSD10, which started with a maximum concentration of 40 nM. Data were analysed as described previously (Aitken et al. 2017, supra).
Two compounds, ESC1002033 and ESC1002082, representative of the two different clusters were investigated for their mechanism of action against the substrates, NADH and AcetoAcetyl CoA (AcAc). The ESC inhibitors were tested as 12-point 1 in 1.5 dilution series with a maximal concentration of 2.5 μM.

In data set [6] the test system is SH-SY5Y (neuroblastoma cells). Particulars: cited from earlier work.
Data set [7] has as its target T2, 17β-HSD10 in HEK293 mts17β-HSD10 cells (Homo sapiens, UniProt Q99714).
T2 construct: expressed in transfected cells; host or cells: HEK293
T2 sequence (Q99714 1-261): T1 sequence (Q99714 1-261)
Put plainly: (-)-CHANA enzyme activity cell based assay. The settings on record: cellular 17β-HSD10, HEK 293 cells, (-)-CHANA probe. On the procedure:
HEK293 mts17β-HSD10 cells were seeded at a density of 10,000 cells per well (100 μL, 96 well black plates) in phenol-red free media (10% FBS, 1 mM sodium pyruvate, 100 units penicillin, 0.1 mg/mL streptomycin and 2 mM L-glutamine). After 24 hours the media was removed from the cells and replaced with fresh media containing varying concentrations of compound (100 μM-0.098 μM). The fluorogenic probe (-)-CHANA was then added to each well to give a final assay concentration of 20 μM. Fluorescence was immediately measured using a FLUOstar Optima microplate reader (excitation=380 nm, emission=520 nm, orbital averaging=3 mm) and the initial reaction monitored for 3-4 hours. IC50 was calculated from the control-subtracted triplicates using non-linear regression (four parameters) of GraphPad Prism 5 software. Final IC50 and SEM value was obtained as a mean of at least 3 independent measurements.
REF: (-)-CHANA, a Fluorogenic Probe for Detecting Amyloid Binding Alcohol Dehydrogenase HSD10 Activity in Living Cells Kirsty E. A. Muirhead, Mary Froemming, Xiaoguang Li, Kamil Musilek, Stuart J. Conway, Dalibor Sames, and Frank J. Gunn-Moore ACS Chemical Biology 2010 5 (12), 1105-1114DOI: 10.1021/cb100199m) to monitor the oxidative activity of 17β-HSD10 in living cells. […]

[8] abbreviates: Table 5, read-out: Mean ABAD pIC50 (converted).

Turning to `CC(C)CN(C(=O)c1c(F)cccc1F)c1cccc(N(C)Cc2c[nH]cn2)c1` [ESC1002456, 2,6-difluoro-N-[3-[1H-imidazol-4-ylmethyl(methyl)amino]phenyl]-N-isobutyl-benzamide], at 17β-HSD10 [1] (Table 5), the “Mean ABAD pIC50” value came to 6.86. At 17β-HSD10 [1], the half-maximal effective concentration (EC50) was 0.138 µM, the “Max. Effect (%)” value is given as 97%, the “Hill Slope” value came out at 1.2 and the “Max. Fit” value was found to be 96. Further, the “Min. Fit” value at 17β-HSD10 [1] is reported as 17. Further, the “Heps Category” value in data set [2] is “High”. In data set [2] (mouse hepatocytes), this molecule gave a Cl of 8.6 ml/minute/g liver and a k of 0.018. The “Mouse PPB (% free)” value in data set [3] is reported as 8.9 % free.
For the molecule `O=C(c1sccc1Cl)N1CCC[C@H]1c1ccccc1-c1cc(O)ccc1F` (single isomer, unassigned) [ESC1002842], the IC50 on 17β-HSD10 [1] (setting [8]) is 0.0347 µM. Moreover, on 17β-HSD10 [1], the EC50 was 0.0407 µM, the “Max. Effect (%)” value worked out at 102%, the “Hill Slope” value worked out at 1.1 and the “Max. Fit” value is 98. Moreover, the “Min. Fit” value on 17β-HSD10 [1] is recorded as −3. The “Heps Category” value in data set [2] was “High”. In data set [2] (mouse hepatocytes), this molecule yielded a Cl of 83.1 ml/minute/g liver and a k of 0.17. Besides, the half-life in data set [2] (mouse hepatocytes, half-life) is 4 min. Besides, the “Mouse PPB (% free)” value in data set [3] is recorded as 3.4 % free.
With `CC(C)CN(C(=O)c1ccccc1F)c1cccc(N(C)Cc2cnc[nH]2)c1` [ESC1002033, 2-fluoro-N-[3-[1H-imidazol-5-ylmethyl(methyl)amino]phenyl]-N-isobutyl-benzamide], the “Mean ABAD pIC50” value on 17β-HSD10 [1] (Table 5) was 6.7. On 17β-HSD10 [1], the EC50 was 0.2 µM, the “Max. Effect (%)” value stood at 99%, the “Hill Slope” value worked out at 1 and the “Max. Fit” value is recorded as 99. Further, at 17β-HSD10 [1], the “Min. Fit” value was −3. Moreover, the shift in melting temperature (ΔTm) at 20 µM at 17β-HSD10 [4] is 6.75 °C. At 17β-HSD10 [5], the “mode of binding with respect to NADH” value is listed as “non-competitively” and the “mode of binding with respect to AcAc” value was “competitively”. Also, in data set [2], the “Heps Category” value is on record as “Mod”. In data set [2] (mouse hepatocytes), this molecule showed a Cl of 6.2 ml/minute/g liver and a k of 0.013.
In the case of `COc1ccc(-c2ccccc2C2CCCN2C(=O)c2sccc2C)cn1` (racemic) [ESC1002082, [2-[2-(6-methoxy-3-pyridyl)phenyl]pyrrolidin-1-yl]-(3-methyl-2-thienyl)methanone], at 17β-HSD10 [1] (17β-HSD10 dose response / inhibition assay), the “17β-HSD10 pIC50” value was 6.1. Further, at 17β-HSD10 [1] (primary screening, resynthesized HTS hit compounds, read-out: ABAD plC50 (converted)), the IC50 is 0.794 µM. In addition, on 17β-HSD10 [1], the 50% effective concentration (EC50) is 0.794 µM, the “Max. Effect (%)” value is given as 96%, the “Hill Slope” value is on record as 1.1 and the “Max. Fit” value is 98. On 17β-HSD10 [1], the “Min. Fit” value was found to be 0. Further, at 17β-HSD10 [5], the “mode of binding with respect to NADH” value is “non-competitively” and the “mode of binding with respect to AcAc” value is listed as “competitively”.
`Cc1ccc(C(=O)N(CC(C)C)c2cccc(N(C)Cc3c[nH]cn3)c2)c(F)c1` [ESC1002575, 2-fluoro-N-[3-[1H-imidazol-4-ylmethyl(methyl)amino]phenyl]-N-isobutyl-4-methyl-benzam]: the “Mean ABAD pIC50” value on 17β-HSD10 [1] (Table 5) is recorded as 6.57. For the same molecule, on 17β-HSD10 [1], the concentration giving a half-maximal response (EC50) was 0.269 µM, the “Max. Effect (%)” value is 102%, the “Hill Slope” value is reported as 1.3 and the “Max. Fit” value came out at 101. The “Min. Fit” value on 17β-HSD10 [1] came to 10. Further, in data set [2], the “Heps Category” value was “Mod”. In addition, in data set [2] (mouse hepatocytes), the Cl is given as 5.8 ml/minute/g liver and the k was 0.012. Also, in data set [3], the “Mouse PPB (% free)” value is on record as 7.6 % free.
For the molecule `O=C(c1[nH]ncc1Cl)N1CCC[C@H]1c1ccccc1-c1cccc(O)c1` (single isomer, unassigned) [ESC1002799], the IC50 at 17β-HSD10 [1] (setting [8]) was 0.11 µM. Besides, at 17β-HSD10 [1], the EC50 was 0.155 µM, the “Max. Effect (%)” value turned out to be 97%, the “Hill Slope” value worked out at 1.1 and the “Max. Fit” value stood at 96. Further, the “Min. Fit” value at 17β-HSD10 [1] is listed as −3. The “Heps Category” value in data set [2] was “High”. Moreover, in data set [2] (mouse hepatocytes), the Cl is 21.9 ml/minute/g liver and the k is 0.046. This molecule also came in with a half-life in data set [2] (mouse hepatocytes, half-life) of 15.2 min. Also, the “Mouse PPB (% free)” value in data set [3] was found to be 9.9 % free.
`O=C(C(c1ccccc1)n1cnc2[nH]ncc2c1=S)N1CCCCCC1` (centres unmarked) [AG18051, reference compound]: in data set [2], the “Heps Category” value was “High”. In data set [2] (mouse hepatocytes), this molecule yielded a Cl of 50.5 ml/minute/g liver and a k of 0.11. The T1/2 in data set [2] (mouse hepatocytes, half-life) was determined as 6.58 min. In data set [6], the “protection from Aβ mediated cytotoxicity” value is “protect cultured SH-SY5Y cells from Aβ mediated cytotoxicity”.
As for `O=C(c1sccc1Cl)N1CCC[C@H]1c1ccccc1-c1cccc(O)c1` (single isomer, unassigned) [ESC1002755], the IC50 on 17β-HSD10 [1] (setting [8]) is 0.0186 µM. At 17β-HSD10 [1], the concentration giving a half-maximal response (EC50) was 0.02 µM, the “Max. Effect (%)” value was determined as 95%, the “Hill Slope” value worked out at 1 and the “Max. Fit” value came out at 93. Further, the “Min. Fit” value at 17β-HSD10 [1] is −2. The “fold improvement in activity / potency” value on 17β-HSD10 [1] (relative to the parent compound of the sentence) is given as 40 fold. For the same molecule, in data set [7], the EC50 is 0.028 µM. In addition, the “Heps Category” value in data set [2] is “High”. For the same molecule, in data set [2] (mouse hepatocytes), the Cl is 105.8 ml/minute/g liver and the k worked out at 0.22. The molecule also displayed a half-life in data set [2] (mouse hepatocytes, half-life) of 3.14 min.
